Assay results from PubChem BioAssay (NCI).
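1) Cells in 96-well plates. 2) Compound, 48 h, 5 concentrations. 3) Linear interpolation between surrounding doses. 4) Unreached endpoint = highest concentration. GI50: concentration for 50% inhibition of growth. TGI is the concentration that stops growth completely.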

Legend:
Assay in all cases: inhibition of tumour cell growth, NCI panel, 48 h
NCI-H522 lung = tested on: NCI-H522 lung
IGROV1 ovarian = tested on: IGROV1 ovarian
CCRF-CEM leukemia = tested on: CCRF-CEM leukemia
SN12C renal = tested on: SN12C renal
OVCAR-5 ovarian = tested on: OVCAR-5 ovarian
MALME-3M melanoma = tested on: MALME-3M melanoma
K-562 leukemia = tested on: K-562 leukemia
SF-295 CNS = tested on: SF-295 CNS
SW-620 colon = tested on: SW-620 colon
SK-MEL-2 melanoma = tested on: SK-MEL-2 melanoma
HCC-2998 colon = tested on: HCC-2998 colon
BT-549 breast = tested on: BT-549 breast
SK-OV-3 ovarian = tested on: SK-OV-3 ovarian
PC-3 prostate = tested on: PC-3 prostate
COLO 205 colon = tested on: COLO 205 colon
LOX IMVI melanoma = tested on: LOX IMVI melanoma
UO-31 renal = tested on: UO-31 renal
A498 renal = tested on: A498 renal
EKVX NSCLC = tested on: EKVX NSCLC
NCI-H23 lung = tested on: NCI-H23 lung
SNB-75 CNS = tested on: SNB-75 CNS
MDA-MB-231 breast = tested on: MDA-MB-231 breast
A549 NSCLC = tested on: A549 NSCLC
SK-MEL-5 melanoma = tested on: SK-MEL-5 melanoma
HS 578T breast = tested on: HS 578T breast
OVCAR-4 ovarian = tested on: OVCAR-4 ovarian
TK-10 renal = tested on: TK-10 renal
NCI/ADR-RES ovarian = tested on: NCI/ADR-RES ovarian
SF-539 CNS = tested on: SF-539 CNS
SF-268 CNS = tested on: SF-268 CNS
T-47D breast = tested on: T-47D breast
MCF7 breast = tested on: MCF7 breast
HOP-92 NSCLC = tested on: HOP-92 NSCLC
M14 melanoma = tested on: M14 melanoma
786-0 renal = tested on: 786-0 renal
OVCAR-8 ovarian = tested on: OVCAR-8 ovarian
KM12 colon = tested on: KM12 colon
HCT-116 colon = tested on: HCT-116 colon
MOLT-4 leukemia = tested on: MOLT-4 leukemia
HT29 colon = tested on: HT29 colon
HOP-62 NSCLC = tested on: HOP-62 NSCLC
RXF 393 renal = tested on: RXF 393 renal
HCT-15 colon = tested on: HCT-15 colon
U251 CNS = tested on: U251 CNS
SK-MEL-28 melanoma = tested on: SK-MEL-28 melanoma
CAKI-1 renal = tested on: CAKI-1 renal
ACHN renal = tested on: ACHN renal
UACC-257 melanoma = tested on: UACC-257 melanoma
UACC-62 melanoma = tested on: UACC-62 melanoma
OVCAR-3 ovarian = tested on: OVCAR-3 ovarian
SR leukemia = tested on: SR leukemia
NCI-H460 lung = tested on: NCI-H460 lung
HL-60(TB) leukemia = tested on: HL-60(TB) leukemia
SNB-19 CNS = tested on: SNB-19 CNS
DU-145 prostate = tested on: DU-145 prostate
RPMI-8226 leukemia = tested on: RPMI-8226 leukemia
MDA-MB-435 = tested on: MDA-MB-435

Cc1oc2nc[nH]c(=O)c2c1C(=O)/C=C/c1ccc(Br)cc1
GI50 (NCI-H522 lung): 1.89 µM
TGI (NCI-H522 lung): 5.76 µM
GI50 (IGROV1 ovarian): 1.81 µM
TGI (IGROV1 ovarian): 10.2 µM
GI50 (CCRF-CEM leukemia): 1.01 µM
TGI (CCRF-CEM leukemia): 30.6 µM
GI50 (SN12C renal): 2.95 µM
TGI (SN12C renal): 11.9 µM
GI50 (OVCAR-5 ovarian): 2.93 µM
TGI (OVCAR-5 ovarian): 9.32 µM
GI50 (MALME-3M melanoma): 1.89 µM
TGI (MALME-3M melanoma): 6 µM
GI50 (K-562 leukemia): 0.798 µM
TGI (K-562 leukemia): > 100 µM
GI50 (SF-295 CNS): 4.22 µM
TGI (SF-295 CNS): 15 µM
GI50 (SW-620 colon): 2.16 µM
TGI (SW-620 colon): 7.09 µM
GI50 (SK-MEL-2 melanoma): 2.34 µM
TGI (SK-MEL-2 melanoma): 7.1 µM
GI50 (HCC-2998 colon): 1.7 µM
TGI (HCC-2998 colon): 3.26 µM
GI50 (BT-549 breast): 1.74 µM
TGI (BT-549 breast): 4.13 µM
GI50 (SK-OV-3 ovarian): 4.08 µM
TGI (SK-OV-3 ovarian): 15.5 µM
GI50 (PC-3 prostate): 2.36 µM
TGI (PC-3 prostate): 15.6 µM
GI50 (COLO 205 colon): 1.7 µM
TGI (COLO 205 colon): 5.5 µM
GI50 (LOX IMVI melanoma): 1.03 µM
TGI (LOX IMVI melanoma): 2.43 µM
GI50 (UO-31 renal): 0.781 µM
TGI (UO-31 renal): 7.39 µM
GI50 (A498 renal): 2.46 µM
TGI (A498 renal): 6.82 µM
GI50 (EKVX NSCLC): 2.37 µM
TGI (EKVX NSCLC): 12.8 µM
GI50 (NCI-H23 lung): 2.07 µM
TGI (NCI-H23 lung): 7.82 µM
GI50 (SNB-75 CNS): 1.23 µM
TGI (SNB-75 CNS): 9.62 µM
GI50 (MDA-MB-231 breast): 3.47 µM
TGI (MDA-MB-231 breast): 17.8 µM
GI50 (A549 NSCLC): 2.73 µM
TGI (A549 NSCLC): 14.2 µM
GI50 (SK-MEL-5 melanoma): 1.56 µM
TGI (SK-MEL-5 melanoma): 3.27 µM
GI50 (HS 578T breast): 3.49 µM
TGI (HS 578T breast): 38.9 µM
GI50 (OVCAR-4 ovarian): 2.51 µM
TGI (OVCAR-4 ovarian): 13.1 µM
GI50 (TK-10 renal): 4.46 µM
TGI (TK-10 renal): 13.3 µM
GI50 (NCI/ADR-RES ovarian): 1.84 µM
TGI (NCI/ADR-RES ovarian): 20.8 µM
GI50 (SF-539 CNS): 1.73 µM
TGI (SF-539 CNS): 4.64 µM
GI50 (SF-268 CNS): 3.08 µM
TGI (SF-268 CNS): 17.5 µM
GI50 (T-47D breast): 1.86 µM
TGI (T-47D breast): 14.2 µM
GI50 (MCF7 breast): 0.505 µM
TGI (MCF7 breast): 11.5 µM
GI50 (HOP-92 NSCLC): 1.35 µM
TGI (HOP-92 NSCLC): 6.86 µM
GI50 (M14 melanoma): 2.14 µM
TGI (M14 melanoma): 8.53 µM
GI50 (786-0 renal): 1.8 µM
TGI (786-0 renal): 3.97 µM
GI50 (OVCAR-8 ovarian): 2.08 µM
TGI (OVCAR-8 ovarian): 88.3 µM
GI50 (KM12 colon): 1.51 µM
TGI (KM12 colon): 3.44 µM
GI50 (HCT-116 colon): 1.26 µM
TGI (HCT-116 colon): 2.82 µM
GI50 (MOLT-4 leukemia): 2.84 µM
TGI (MOLT-4 leukemia): 17.9 µM
GI50 (HT29 colon): 2.36 µM
TGI (HT29 colon): 6.3 µM
GI50 (HOP-62 NSCLC): 2.62 µM
TGI (HOP-62 NSCLC): 9.73 µM
GI50 (RXF 393 renal): 1.41 µM
TGI (RXF 393 renal): 3.22 µM
GI50 (HCT-15 colon): 1.09 µM
TGI (HCT-15 colon): 4.96 µM
GI50 (U251 CNS): 1.44 µM
TGI (U251 CNS): 3.17 µM
GI50 (SK-MEL-28 melanoma): 2.39 µM
TGI (SK-MEL-28 melanoma): 8.3 µM
GI50 (CAKI-1 renal): 1.34 µM
TGI (CAKI-1 renal): 11.5 µM
GI50 (ACHN renal): 1.6 µM
TGI (ACHN renal): 5.61 µM
GI50 (UACC-257 melanoma): 2.37 µM
TGI (UACC-257 melanoma): 11.3 µM
GI50 (UACC-62 melanoma): 1.33 µM
TGI (UACC-62 melanoma): 3.03 µM
GI50 (OVCAR-3 ovarian): 1.85 µM
TGI (OVCAR-3 ovarian): 5.74 µM
GI50 (SR leukemia): 1.35 µM
TGI (SR leukemia): 16.3 µM
GI50 (NCI-H460 lung): 3.25 µM
TGI (NCI-H460 lung): 11 µM
GI50 (HL-60(TB) leukemia): 2.32 µM
TGI (HL-60(TB) leukemia): 10.3 µM
GI50 (SNB-19 CNS): 1.8 µM
TGI (SNB-19 CNS): 5.44 µM
GI50 (DU-145 prostate): 2.03 µM
TGI (DU-145 prostate): 7.85 µM
GI50 (RPMI-8226 leukemia): 1.36 µM
TGI (RPMI-8226 leukemia): 6.91 µM
GI50 (MDA-MB-435): 2 µM
TGI (MDA-MB-435): 6.69 µM
